According to patent US20250098679A1, “HERBICIDAL PYRIDONE DERIVATIVES” (SYNGENTA CROP PROTECTION AG, priority 2021, published 2025):

How the values were obtained:
Type in all cases: in vivo
Details in all cases: evaluated after 13 days
Setaria faberi (SETFA) [1] = test: Post-emergence Test, Setaria faberi (SETFA); parameters: key to percentage damage caused to the plant, SETFA (five-point scale): 5=81-100%, 4=61-80%, 3=41-60%, 2=21-40%, 1=0-20% damage
Summary of the method: (§1)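 Scores are percentage plant damage on a 1–5 scale (1=0-20%, 2=21-40%, 3=41-60%, 4=61-80%, 5=81-100%), read 13 days after treatment. Pots received a spray at 1000 g/ha unless otherwise stated, formulated in acetone/water (50:50) containing 0.5% Tween 20.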

[2] = tested on: Ipomoea hederacea (IPOHE); test: Post-emergence Test, Ipomoea hederacea (IPOHE); parameters: key to percentage damage caused to the plant, IPOHE (five-point scale): 5=81-100%, 4=61-80%, 3=41-60%, 2=21-40%, 1=0-20% damage
Summary of the method: as §1

Setaria faberi (SETFA) [3] = test: Pre-emergence Test, Setaria faberi (SETFA)
[4] = tested on: Echinochloa crus-galli (ECHCG); test: Post-emergence Test, Echinochloa crus-galli (ECHCG); parameters: key to percentage damage caused to the plant, ECHCG (five-point scale): 5=81-100%, 4=61-80%, 3=41-60%, 2=21-40%, 1=0-20% damage
Summary of the method: as §1

[5] = tested on: Amaranthus retoflexus (AMARE); test: Pre-emergence Test, Amaranthus retoflexus (AMARE)
Zea mays (ZEAMX) [6] = test: Pre-emergence Test, Zea mays (ZEAMX)
[7] = tested on: Amaranthus palmeri (AMAPA); test: Post-emergence Test, Amaranthus palmeri (AMAPA); parameters: key: 5=81-100%, 4=61-80%, 3=41-60%, 2=21-40%, 1=0-20% damage
Summary of the method: as §1

Zea mays (ZEAMX) [8] = test: Post-emergence Test, Zea mays (ZEAMX); parameters: key to percentage damage caused to the plant, ZEAMX (five-point scale): 5=81-100%, 4=61-80%, 3=41-60%, 2=21-40%, 1=0-20% damage
Summary of the method: as §1

[9] = tested on: Amaranthus retoflexus (AMARE); test: Post-emergence Test, Amaranthus retoflexus (AMARE); parameters: key to percentage damage caused to the plant, AMARE (five-point scale): 5=81-100%, 4=61-80%, 3=41-60%, 2=21-40%, 1=0-20% damage
Summary of the method: as §1

[10] = tested on: Ipomoea hederacea (IPOHE); test: Pre-emergence Test, Ipomoea hederacea (IPOHE)
[11] = tested on: Echinochloa crus-galli (ECHCG); test: Pre-emergence Test, Echinochloa crus-galli (ECHCG)
[12] = tested on: Amaranthus palmeri (AMAPA); test: Pre-emergence Test, Amaranthus palmeri (AMAPA)

Structure (SMILES) | percentage damage caused to the plant, SETFA (five-point scale) (Setaria faberi (SETFA) [1]; 1000 g/ha) | percentage damage caused to the plant, IPOHE (five-point scale) ([2]; 250 g/Ha) | percentage damage caused to the plant, IPOHE (five-point scale) ([2]; 1000 g/ha) | Pre-emergence Test SETFA, percentage damage caused to the plant (five-point scale) (Setaria faberi (SETFA) [3]; 1000 g/ha) | percentage damage caused to the plant, ECHCG (five-point scale) ([4]; 250 g/Ha) | percentage damage caused to the plant, ECHCG (five-point scale) ([4]; 1000 g/ha) | Pre-emergence Test AMARE, percentage damage caused to the plant (five-point scale) ([5]; 1000 g/ha) | Pre-emergence Test ZEAMX, percentage damage caused to the plant (five-point scale) (Zea mays (ZEAMX) [6]; 1000 g/ha) | percentage damage caused to the plant, AMAPA (five-point scale) ([7]; 250 g/Ha) | percentage damage caused to the plant, AMAPA (five-point scale) ([7]; 1000 g/ha) | percentage damage caused to the plant, ZEAMX (five-point scale) (Zea mays (ZEAMX) [8]; 250 g/Ha) | percentage damage caused to the plant, ZEAMX (five-point scale) (Zea mays (ZEAMX) [8]; 1000 g/ha) | percentage damage caused to the plant, AMARE (five-point scale) ([9]; 250 g/Ha) | percentage damage caused to the plant, AMARE (five-point scale) ([9]; 1000 g/ha) | Pre-emergence Test IPOHE, percentage damage caused to the plant (five-point scale) ([10]; 1000 g/ha) | Pre-emergence Test ECHCG, percentage damage caused to the plant (five-point scale) ([11]; 1000 g/ha) | Pre-emergence Test AMAPA, percentage damage caused to the plant (five-point scale) ([12]; 1000 g/ha) | further results
CCn1c(Cn2nc(C(F)(F)F)cc2OCCOC)cc(=O)c(C(=O)O)c1-c1ccc(Cl)c(Cl)c1 [Compound 144, 2-(3,4-dichlorophenyl)-1-ethyl-6-[[5-(2-methoxyethoxy)-3-(trifluoromethyl)pyrazol-1-yl]methyl]-4-oxo-pyridine-3-carboxylic acid] | 3 (3=41-60%) | 1 (1=0-20%) | 2 (2=21-40%) | 5 (5=81-100%) | 2 (2=21-40%) | 3 (3=41-60%) | 0 | 0 | 0 | 1 (1=0-20%) | 0 | 3 (3=41-60%) | 1 (1=0-20%) | 2 (2=21-40%) | 1 (1=0-20%) | 1 (1=0-20%) | 0 | percentage damage caused to the plant, SETFA (five-point scale) (Setaria faberi (SETFA) [1]; 250 g/Ha): 2 (2=21-40%)
CCOC(=O)c1c(-c2ccc(Cl)c(Cl)c2)n(CC)c(Cn2ncc3cnc(Cl)cc32)cc1=O [Compound 52, ethyl 6-[(6-chloropyrazolo[4,3-c]pyridin-1-yl)methyl]-2-(3,4-dichlorophenyl)-1-ethyl-4-oxo-pyridine-3-carboxylate] | 1 (1=0-20%) |  | 2 (2=21-40%) | 0 |  | 1 (1=0-20%) | 1 (1=0-20%) | 0 |  | 2 (2=21-40%) |  | 0 |  | 0 | 0 |  | 1 (1=0-20%) | 
CCOC(=O)c1c(C)cnn1Cc1cc(=O)c(C(=O)O)c(-c2ccc(Cl)c(Cl)c2)n1CC [Compound 122, 2-(3,4-dichlorophenyl)-6-[(5-ethoxycarbonyl-4-methyl-pyrazol-1-yl)methyl]-1-ethyl-4-oxo-pyridine-3-carboxylic acid] |  |  |  |  |  |  |  |  |  |  |  |  |  |  |  |  |  | Pre-emergence Test SETFA, percentage damage caused to the plant (five-point scale) (Setaria faberi (SETFA) [3]; 250 g/Ha (*)): 1 (1=0-20%); Pre-emergence Test AMARE, percentage damage caused to the plant (five-point scale) ([5]; 250 g/Ha (*)): 0; Pre-emergence Test ZEAMX, percentage damage caused to the plant (five-point scale) (Zea mays (ZEAMX) [6]; 250 g/Ha (*)): 0; Pre-emergence Test IPOHE, percentage damage caused to the plant (five-point scale) ([10]; 250 g/Ha (*)): 0; Pre-emergence Test ECHCG, percentage damage caused to the plant (five-point scale) ([11]; 250 g/Ha (*)): 0; Pre-emergence Test AMAPA, percentage damage caused to the plant (five-point scale) ([12]; 250 g/Ha (*)): 1 (1=0-20%)
CCn1c(Cn2cc(C(=O)OC)cn2)cc(=O)c(C(=O)OC(C)(C)C)c1-c1ccc(Cl)c(Cl)c1 [Compound 61, tert-butyl 2-(3,4-dichlorophenyl)-1-ethyl-6-[(4-methoxycarbonyl-pyrazol-1-yl)methyl]-4-oxo-pyridine-3-carboxylate] | 1 (1=0-20%) |  | 0 | 1 (1=0-20%) |  | 0 | 1 (1=0-20%) | 0 |  | 0 |  | 0 |  | 1 (1=0-20%) | 0 |  | 1 (1=0-20%) | 
CCn1c(Cn2ncc(Cl)c2C)cc(=O)c(C(=O)O)c1-c1ccc(Cl)c(Cl)c1 [Compound 88, 6-[(4-chloro-5-methyl-pyrazol-1-yl)methyl]-2-(3,4-dichlorophenyl)-1-ethyl-4-oxo-pyridine-3-carboxylic acid] | 4 (4=61-80%) | 2 (2=21-40%) | 2 (2=21-40%) | 2 (2=21-40%) | 3 (3=41-60%) | 2 (2=21-40%) |  | 1 (1=0-20%) | 1 (1=0-20%) | 2 (2=21-40%) | 0 | 3 (3=41-60%) | 1 (1=0-20%) | 1 (1=0-20%) | 2 (2=21-40%) | 3 (3=41-60%) |  | percentage damage caused to the plant, SETFA (five-point scale) (Setaria faberi (SETFA) [1]; 250 g/Ha): 0
CCn1c(Cn2nc(-c3ccccc3)cc2C(F)(F)F)cc(=O)c(C(=O)O)c1-c1ccc(Cl)c(Cl)c1 [Compound 198, 2-(3,4-dichlorophenyl)-1-ethyl-4-oxo-6-[[3-phenyl-5-(trifluoromethyl)pyrazol-1-yl]methyl]pyridine-3-carboxylic acid] |  |  |  |  |  |  | 1 (1=0-20%) | 1 (1=0-20%) |  |  |  |  |  |  | 0 | 1 (1=0-20%) | 1 (1=0-20%) | Post-emergence Test SETFA, percentage damage caused to the plant (five-point scale) (Setaria faberi (SETFA) [1]; 1000 g/ha): 2 (2=21-40%); Post-emergence Test IPOHE, percentage damage caused to the plant (five-point scale) ([2]; 250 g/Ha (*)): 1 (1=0-20%); Post-emergence Test IPOHE, percentage damage caused to the plant (five-point scale) ([2]; 1000 g/ha): 2 (2=21-40%); Post-emergence Test ECHCG, percentage damage caused to the plant (five-point scale) ([4]; 250 g/Ha (*)): 2 (2=21-40%); Post-emergence Test AMAPA, percentage damage caused to the plant (five-point scale) ([7]; 250 g/Ha (*)): 1 (1=0-20%); Post-emergence Test AMAPA, percentage damage caused to the plant (five-point scale) ([7]; 1000 g/ha): 3 (3=41-60%); Post-emergence Test ZEAMX, percentage damage caused to the plant (five-point scale) (Zea mays (ZEAMX) [8]; 250 g/Ha (*)): 1 (1=0-20%); Post-emergence Test ZEAMX, percentage damage caused to the plant (five-point scale) (Zea mays (ZEAMX) [8]; 1000 g/ha): 2 (2=21-40%); Post-emergence Test AMARE, percentage damage caused to the plant (five-point scale) ([9]; 250 g/Ha (*)): 1 (1=0-20%); Post-emergence Test AMARE, percentage damage caused to the plant (five-point scale) ([9]; 1000 g/ha): 4 (4=61-80%)
CCn1c(Cn2ccc(Br)n2)cc(=O)c(C(=O)O)c1-c1ccc(Cl)c(Cl)c1 [Compound 177, 6-[(3-bromopyrazol-1-yl)methyl]-2-(3,4-dichlorophenyl)-1-ethyl-4-oxo-pyridine-3-carboxylic acid] | 4 (4=61-80%) | 4 (4=61-80%) | 3 (3=41-60%) |  | 3 (3=41-60%) |  | 1 (1=0-20%) | 0 | 2 (2=21-40%) | 2 (2=21-40%) | 1 (1=0-20%) | 1 (1=0-20%) | 1 (1=0-20%) | 3 (3=41-60%) | 2 (2=21-40%) | 5 (5=81-100%) | 1 (1=0-20%) | Pre-emergence Test AMARE, percentage damage caused to the plant (five-point scale) ([5]; 250 g/Ha (*)): 0; Pre-emergence Test ZEAMX, percentage damage caused to the plant (five-point scale) (Zea mays (ZEAMX) [6]; 250 g/Ha (*)): 0; Pre-emergence Test IPOHE, percentage damage caused to the plant (five-point scale) ([10]; 250 g/Ha (*)): 1 (1=0-20%); Pre-emergence Test ECHCG, percentage damage caused to the plant (five-point scale) ([11]; 250 g/Ha (*)): 4 (4=61-80%); Pre-emergence Test AMAPA, percentage damage caused to the plant (five-point scale) ([12]; 250 g/Ha (*)): 1 (1=0-20%)
